Experimental data as given in PMC6271513, “Design and Synthesis of Chalcone Derivatives as Inhibitors of the Ferredoxin — Ferredoxin-NADP^+ Reductase Interaction of Plasmodium falciparum: Pursuing New Antimalarial Agents” (Molecules, 2014).

These molecules were tested against T1, PfFd-PfFNR (Plasmodium falciparum, UniProt C6KT68+Q8IED5) (assay: cytochrome c reduction at […] nm, FNR-Fd electron transfer).
T1 construct: gene FNR; recombinant PfFNR (E. coli TG1 pTrc99A) and PfFd (E. coli JM105 pTrc99A), purified; PfFd 2Fe-2S, PfFNR flavoprotein
Format: biochemical

T1 sequence (C6KT68 56-371): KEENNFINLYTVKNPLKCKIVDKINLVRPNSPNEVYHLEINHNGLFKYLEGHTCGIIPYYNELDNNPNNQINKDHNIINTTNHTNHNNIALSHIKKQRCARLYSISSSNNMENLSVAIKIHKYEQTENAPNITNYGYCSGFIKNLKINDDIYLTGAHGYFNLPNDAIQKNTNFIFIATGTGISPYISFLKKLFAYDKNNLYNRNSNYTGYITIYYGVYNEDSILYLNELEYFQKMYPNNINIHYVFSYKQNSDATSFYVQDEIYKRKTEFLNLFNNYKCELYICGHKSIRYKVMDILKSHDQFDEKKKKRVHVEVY
T1 sequence (Q8IED5 97-194 limits assumed): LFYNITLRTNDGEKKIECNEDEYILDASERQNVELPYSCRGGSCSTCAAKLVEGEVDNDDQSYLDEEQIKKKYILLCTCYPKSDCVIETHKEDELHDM

| Structure (SMILES) | inhibition at 100 µM [%] |
| --- | --- |
| O=C(/C=C/c1ccccc1)c1ccccc1 [compound 17, (E)-1,3-diphenyl-2-propen-1-one] | 22.1 |
| COc1ccc(OC)c(/C=C/C(=O)c2ccc(N)cc2)c1 [compound 6, (E)-1-(4-Aminophenyl)-3-(2,5-dimethoxyphenyl)prop-2-en-1-one] | -14.1 |
| COc1cccc(/C=C/C(=O)c2ccc(N)cc2)c1OC [compound 4, (E)-1-(4-Aminophenyl)-3-(2,3-dimethoxyphenyl)prop-2-en-1-one] | 31.6 |
| COc1ccc(/C=C/C(=O)c2ccc(Br)cc2)cc1 [compound 14, (E)-1-(4-Bromophenyl)-3-(4-methoxyphenyl)prop-2-en-1-one] | 7.35 |
| COc1ccc(/C=C/C(=O)c2ccccc2)c(OC)c1 [compound 12, (E)-3-(2,4-Dimethoxyphenyl)-1-phenylprop-2-en-1-one] | 6.25 |
| COc1ccc(OC)c(/C=C/C(=O)c2ccc(Br)cc2)c1 [compound 16, (E)-1-(4-Bromophenyl)-3-(2,5-dimethoxyphenyl)prop-2-en-1-one] | 11.8 |
| COc1cccc(/C=C/C(=O)c2ccccc2)c1OC [compound 11, (E)-3-(2,3-Dimethoxyphenyl)-1-phenylprop-2-en-1-one] | -5.88 |
| COc1ccccc1/C=C/C(=O)c1ccc(N)cc1 [compound 1, (E)-1-(4-Aminophenyl)-3-(2-methoxyphenyl)prop-2-en-1-one] | 15.8 |
| COc1ccc(OC)c(/C=C/C(=O)c2ccccc2)c1 [compound 13, (E)-3-(2,5-Dimethoxyphenyl)-1-phenylprop-2-en-1-one] | 5.88 |
| COc1ccc(/C=C/C(=O)c2ccc(Br)cc2)c(OC)c1 [compound 15, (E)-1-(4-Bromophenyl)-3-(2,4-dimethoxyphenyl)prop-2-en-1-one] | 26.5 |
| COc1ccccc1/C=C/C(=O)c1ccccc1 [compound 8, (E)-3-(2-Methoxyphenyl)-1-phenylprop-2-en-1-one] | -10.3 |
| Nc1ccc(C(=O)/C=C/c2ccccc2)cc1 [compound 7, (E)-1-(4-Aminophenyl)-3-phenylprop-2-en-1-one] | 10.9 |
| COc1ccc(/C=C/C(=O)c2ccccc2)cc1 [compound 10, (E)-3-(4-Methoxyphenyl)-1-phenylprop-2-en-1-one] | 4.69 |
| COc1ccc(/C=C/C(=O)c2ccc(N)cc2)c(OC)c1 [compound 5, (E)-1-(4-Aminophenyl)-3-(2,4-dimethoxyphenyl)prop-2-en-1-one] | 38.2 |
| COc1cccc(/C=C/C(=O)c2ccc(N)cc2)c1 [compound 2, (E)-1-(4-Aminophenyl)-3-(3-methoxyphenyl)prop-2-en-1-one] | 22.4 |
| COc1cccc(/C=C/C(=O)c2ccccc2)c1 [compound 9, (E)-3-(3-Methoxyphenyl)-1-phenylprop-2-en-1-one] | 0 |
